Our source for the IC50 and Ratio IC50 values is ChEMBL document CHEMBL1146318, “Synthesis and SAR of novel 2-arylthiazolidinones as selective analgesic N-type calcium channel blockers” (Bioorg Med Chem Lett, 2007).

Test [1] concerns the target Voltage-dependent N-type calcium channel subunit alpha-1B (Homo sapiens, UniProt Q00975). Briefly: Inhibition of calcium channel Cav2.2 in IMR32 cells. The format is cell-based, IMR-32.
The nature of test [2]: Inhibition of calcium channel L type in IMR32 cells. The class given is cell-based, Homo sapiens. To be noted: imr-32.
The species entered for the next test is Homo sapiens. Briefly: Selectivity for calcium channel Cav2.2 over calcium channel L type.

Voltage-dependent N-type calcium channel subunit alpha-1B, sequence (Q00975 whole entry): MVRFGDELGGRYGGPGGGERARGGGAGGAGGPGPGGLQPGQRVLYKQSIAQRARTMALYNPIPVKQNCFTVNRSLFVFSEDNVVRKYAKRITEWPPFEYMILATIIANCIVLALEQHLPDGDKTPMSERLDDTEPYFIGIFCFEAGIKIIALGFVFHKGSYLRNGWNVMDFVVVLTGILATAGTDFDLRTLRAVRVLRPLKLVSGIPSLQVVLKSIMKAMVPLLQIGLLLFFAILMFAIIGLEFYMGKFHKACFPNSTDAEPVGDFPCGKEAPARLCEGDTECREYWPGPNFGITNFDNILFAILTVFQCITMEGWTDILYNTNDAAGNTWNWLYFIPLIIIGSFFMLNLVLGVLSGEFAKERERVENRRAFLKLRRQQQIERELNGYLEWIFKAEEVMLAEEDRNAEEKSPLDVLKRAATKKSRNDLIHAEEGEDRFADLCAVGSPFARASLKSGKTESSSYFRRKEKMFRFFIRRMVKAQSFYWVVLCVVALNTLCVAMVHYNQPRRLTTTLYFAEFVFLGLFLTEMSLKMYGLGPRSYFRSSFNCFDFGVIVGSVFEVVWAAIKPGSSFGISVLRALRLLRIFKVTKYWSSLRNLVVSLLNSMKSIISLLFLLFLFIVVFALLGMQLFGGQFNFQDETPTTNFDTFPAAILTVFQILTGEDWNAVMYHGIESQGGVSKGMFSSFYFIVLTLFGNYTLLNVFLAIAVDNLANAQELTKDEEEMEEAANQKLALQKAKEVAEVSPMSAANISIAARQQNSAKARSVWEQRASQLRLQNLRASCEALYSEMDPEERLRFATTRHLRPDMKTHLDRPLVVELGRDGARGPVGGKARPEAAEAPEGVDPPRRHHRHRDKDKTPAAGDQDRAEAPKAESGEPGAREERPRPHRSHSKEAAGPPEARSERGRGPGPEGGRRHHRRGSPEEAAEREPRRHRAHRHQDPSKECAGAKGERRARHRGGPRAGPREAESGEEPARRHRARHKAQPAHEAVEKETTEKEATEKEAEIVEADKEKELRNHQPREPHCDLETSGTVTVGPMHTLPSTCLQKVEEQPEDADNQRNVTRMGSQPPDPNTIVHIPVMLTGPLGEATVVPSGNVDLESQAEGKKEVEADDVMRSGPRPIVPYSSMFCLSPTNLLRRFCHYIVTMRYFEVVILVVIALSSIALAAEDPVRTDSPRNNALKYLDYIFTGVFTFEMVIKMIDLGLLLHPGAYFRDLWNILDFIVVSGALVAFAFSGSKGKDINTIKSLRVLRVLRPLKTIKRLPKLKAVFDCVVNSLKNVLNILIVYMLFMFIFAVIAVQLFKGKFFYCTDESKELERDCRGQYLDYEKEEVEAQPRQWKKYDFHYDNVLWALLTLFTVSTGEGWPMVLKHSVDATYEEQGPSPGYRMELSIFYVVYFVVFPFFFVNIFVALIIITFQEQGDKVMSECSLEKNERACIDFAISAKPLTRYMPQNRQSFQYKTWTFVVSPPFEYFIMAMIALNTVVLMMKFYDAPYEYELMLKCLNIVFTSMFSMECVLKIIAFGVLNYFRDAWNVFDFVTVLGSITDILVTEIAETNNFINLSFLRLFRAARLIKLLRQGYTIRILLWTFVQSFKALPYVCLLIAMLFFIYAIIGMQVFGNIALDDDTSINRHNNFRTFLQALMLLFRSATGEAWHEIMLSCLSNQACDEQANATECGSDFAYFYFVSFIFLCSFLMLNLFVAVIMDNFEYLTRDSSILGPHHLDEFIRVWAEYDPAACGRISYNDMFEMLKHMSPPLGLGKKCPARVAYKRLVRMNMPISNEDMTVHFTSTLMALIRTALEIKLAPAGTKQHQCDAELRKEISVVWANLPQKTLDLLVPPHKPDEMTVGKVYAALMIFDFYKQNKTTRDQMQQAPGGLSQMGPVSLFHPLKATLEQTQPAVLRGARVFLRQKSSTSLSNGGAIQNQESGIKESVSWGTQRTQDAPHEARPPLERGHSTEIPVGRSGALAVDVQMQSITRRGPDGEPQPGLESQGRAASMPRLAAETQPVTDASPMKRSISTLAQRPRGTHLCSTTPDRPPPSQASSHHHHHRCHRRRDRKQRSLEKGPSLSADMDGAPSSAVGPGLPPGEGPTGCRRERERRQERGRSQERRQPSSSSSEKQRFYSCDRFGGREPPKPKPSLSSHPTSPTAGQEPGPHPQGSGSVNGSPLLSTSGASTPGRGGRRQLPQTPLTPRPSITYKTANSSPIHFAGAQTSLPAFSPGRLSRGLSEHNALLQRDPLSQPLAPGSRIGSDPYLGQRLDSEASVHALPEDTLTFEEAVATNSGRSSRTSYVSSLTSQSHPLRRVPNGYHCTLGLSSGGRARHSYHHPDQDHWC

Regarding `CC(C)CN1C(=O)CSC1c1cccnc1-c1ccc(Cl)cc1` (stereo unspecified), the IC50 stood at 1.26 µM in test [1] and 7.49 µM in test [2]. Moreover, the Ratio IC50 in the test filed under Homo sapiens is 5.9.

For the compound `Cc1ccc(-c2ccncc2[C@H]2SCC(=O)N2CC(C)C)cc1` (stereo in doubt; 60) [listing 1 of 2 here], the 50% inhibitory concentration (IC50) is 4.44 µM in test [1] and 12.9 µM in test [2].

On to `CC(C)CN1C(=O)CSC1c1cnccc1-c1ccc(Br)cc1` (stereo unspecified), for which the IC50 in test [1] was 0.66 µM; in test [2], 8.41 µM. Further, the Ratio IC50 in the test filed under Homo sapiens is 12.8.

With `O=C1C[S+]([O-])C(c2ccc(F)c(Br)c2)N1CCc1ccccn1` (stereo unspecified), the figures for the IC50 in test [1] and in test [2] were 29.8 µM and greater than 30 µM, respectively.

With `CCc1ccc(-c2ccncc2C2SCC(=O)N2CC(C)C)cc1` (stereo unspecified), the IC50 in test [1] worked out at 0.88 µM; in test [2], 5.54 µM. Further, the Ratio IC50 in the test filed under Homo sapiens was found to be 6.3.

With `O=C1CSC(c2cnccc2-c2ccc(Br)cc2)N1C1CCCC1` (stereo unspecified), the IC50 in test [1] was found to be 0.63 µM; in test [2] it was 10.3 µM. The Ratio IC50 in the test listed under Homo sapiens was determined as 16.3.

Turning to `C=Cc1ccc(-c2ccncc2C2SCC(=O)N2CC(C)C)cc1` (stereo unspecified), the results for the half-inhibitory concentration (IC50) in test [1] and in test [2] were 0.51 µM and 9.99 µM, respectively. Also, the Ratio IC50 in the test listed under Homo sapiens amounted to 19.5.

On to `Cc1ccc(-c2ccncc2[C@H]2SCC(=O)N2CC(C)C)cc1` (stereo in doubt; 61) [listing 1 of 2 here], for which the IC50 was determined as 0.73 µM in test [1] and 23.2 µM in test [2].

On to `CC(C)CN1C(=O)C[S+]([O-])C1c1cnccc1-c1ccc(Br)cc1` (stereo unspecified), for which the values for the IC50 in test [1] and in test [2] were 3.97 µM and 15 µM, respectively. Further, the Ratio IC50 in the test listed under Homo sapiens was 3.8.

On to `COc1ccc(-c2ncccc2C2SCC(=O)N2CC(C)C)cc1` (stereo unspecified), for which the IC50 was found to be 8.93 µM in test [1] and 20.6 µM in test [2]. Besides, the Ratio IC50 in the test listed under Homo sapiens came to 2.3.

For the compound `COc1ccc(CN2CCN(C(c3ccc(F)cc3)c3ccc(F)cc3)CC2)c(OC)c1OC` [LOMERIZINE], the 50% inhibitory concentration (IC50) came to 2.43 µM in test [1] and 1.48 µM in test [2]. In addition, the Ratio IC50 in the test listed under Homo sapiens came to 0.6.

As to `CC(C)CNC(=O)CC1SC(c2cccc(C(F)(F)F)c2)N(CCc2ccccn2)C1=O` (stereo unspecified), the results for the IC50 in test [1] and in test [2] were 1.29 µM and 2.08 µM, respectively. The Ratio IC50 in the test listed under Homo sapiens stood at 1.6.

In the case of `CCC(C)N1C(=O)CSC1c1cnccc1-c1ccc(Br)cc1` (stereo unspecified), the IC50 was 0.21 µM in test [1] and 2.33 µM in test [2]. Moreover, the Ratio IC50 in the test filed under Homo sapiens amounted to 11.2.

Regarding `Cc1ccc(-c2ncccc2C2SCC(=O)N2CC(C)C)cc1` (stereo unspecified), the half-inhibitory concentration (IC50) in test [1] came out at 1.96 µM; in test [2] it was 12.5 µM. In addition, the Ratio IC50 in the test filed under Homo sapiens was found to be 6.4.

With `COc1ccc(-c2cnccc2C2SCC(=O)N2CC(C)C)cc1` (stereo unspecified), the IC50 in test [1] was determined as 1.4 µM; in test [2], 13.7 µM. Further, the Ratio IC50 in the test listed under Homo sapiens was found to be 9.5.

Take `CC(C)CN1C(=O)CSC1c1cnccc1-c1ccccc1` (stereo unspecified): the IC50 in test [1] is 3.98 µM; in test [2], 16.4 µM. Further, in the test listed under Homo sapiens, the Ratio IC50 was found to be 4.1.

Take `CC(C)CN1C(=O)CSC1c1ccncc1-c1ccc(Cl)cc1` (stereo unspecified): the IC50 in test [1] came to 0.58 µM; in test [2] it was 4.58 µM. Also, the Ratio IC50 in the test listed under Homo sapiens was 7.9.

Consider `CC(C)CN1C(=O)CSC1c1cnccc1-c1ccc(C(F)(F)F)cc1` (stereo unspecified), for which the concentration for half-maximal inhibition (IC50) in test [1] is 1.07 µM; in test [2] it was 10.3 µM. Further, the Ratio IC50 in the test listed under Homo sapiens is 9.6.

On to `CC(C)CN1C(=O)CSC1c1cnccc1-c1ccc(F)cc1` (stereo unspecified), for which the concentration for half-maximal inhibition (IC50) in test [1] stood at 1.29 µM; in test [2] it was 6.66 µM. Besides, the Ratio IC50 in the test listed under Homo sapiens was 5.2.

For the compound `CC(C)CN1C(=O)CSC1c1cccnc1-c1ccc(C(F)(F)F)cc1` (stereo unspecified), the half-maximal inhibitory concentration (IC50) in test [1] was 0.56 µM; in test [2], 5.44 µM. Moreover, in the test listed under Homo sapiens, the Ratio IC50 stood at 9.7.

With `Cc1ccc(-c2ccncc2C2SCC(=O)N2CC(C)C)cc1` (stereo unspecified), the IC50 in test [1] was found to be 0.49 µM; in test [2] it was 8.2 µM. Further, the Ratio IC50 in the test listed under Homo sapiens was determined as 16.7.

On to `CC(C)CN1C(=O)CSC1c1cccnc1-c1ccc(F)cc1` (stereo unspecified), for which the half-inhibitory concentration (IC50) in test [1] was found to be 4.92 µM; in test [2], 12.9 µM. The Ratio IC50 in the test listed under Homo sapiens was 2.6.

`C=Cc1ccc(-c2cnccc2C2SCC(=O)N2CC(C)C)cc1` (stereo unspecified): the results for the IC50 in test [1] and in test [2] were 0.53 µM and 4.16 µM, respectively. Moreover, the Ratio IC50 in the test listed under Homo sapiens was determined as 7.8.

As to `O=C1CS(=O)(=O)C(c2ccc(F)c(Br)c2)N1CCc1ccccn1` (stereo unspecified), the figures for the concentration for half-maximal inhibition (IC50) in test [1] and in test [2] were 8.13 µM and greater than 30 µM, respectively.

With `O=C1CSC(c2cnccc2-c2ccc(Br)cc2)N1C1CC1` (stereo unspecified), the values for the IC50 in test [1] and in test [2] were 1.3 µM and 4.69 µM, respectively. Moreover, the Ratio IC50 in the test filed under Homo sapiens turned out to be 3.6.

Consider `CC(C)CN1C(=O)CS[C@@H]1c1cnccc1-c1ccc(C(F)(F)F)cc1` (stereo in doubt; 58) [listing 1 of 2 here], for which the Ratio IC50 in the test filed under Homo sapiens worked out at 3.9.

In the case of `CC(C)CN1C(=O)CSC1c1cccnc1-c1ccc(Br)cc1` (stereo unspecified), the half-inhibitory concentration (IC50) in test [1] was 0.7 µM; in test [2] it was 6.2 µM. For the same compound, the Ratio IC50 in the test listed under Homo sapiens was 8.9.

As for `CC(C)CN1C(=O)CSC1c1cnccc1-c1ccc(Cl)cc1` (stereo unspecified), the values for the concentration for half-maximal inhibition (IC50) in test [1] and in test [2] were 0.6 µM and 2.18 µM, respectively. In addition, the Ratio IC50 in the test filed under Homo sapiens stood at 3.6.

Take `Cc1ccc(-c2cnccc2C2SCC(=O)N2CC(C)C)cc1` (stereo unspecified): the values for the IC50 in test [1] and in test [2] were 0.59 µM and 8.03 µM, respectively. Further, in the test listed under Homo sapiens, the Ratio IC50 was 13.6.

As for `CC(C)CNC(=O)CC1SC(c2ccc(F)c(Br)c2)N(CCc2ccccn2)C1=O` (stereo unspecified), the IC50 in test [1] was 1.34 µM; in test [2], 2.92 µM. In the test listed under Homo sapiens, the Ratio IC50 was 2.2.

For `O=C1CSC(c2cccc(C(F)(F)F)c2)N1CCc1ccccn1` (stereo unspecified), the values for the 50% inhibitory concentration (IC50) in test [1] and in test [2] were 2.41 µM and 11.5 µM, respectively. In the test filed under Homo sapiens, the Ratio IC50 amounted to 4.8.

Turning to `Cc1ccc(-c2ccncc2[C@H]2SCC(=O)N2CC(C)C)cc1` (stereo in doubt; 61) [listing 2 of 2 here], the Ratio IC50 in the test filed under Homo sapiens is 31.8.

For `C=Cc1ccc(-c2ncccc2C2SCC(=O)N2CC(C)C)cc1` (stereo unspecified), the 50% inhibitory concentration (IC50) worked out at 1.33 µM in test [1] and 4.23 µM in test [2]. Moreover, the Ratio IC50 in the test listed under Homo sapiens amounted to 3.2.

For `Cc1ccc(-c2ccncc2[C@H]2SCC(=O)N2CC(C)C)cc1` (stereo in doubt; 60) [listing 2 of 2 here], the Ratio IC50 in the test filed under Homo sapiens came out at 2.9.

Consider `O=C1CSC(c2ccc(F)c(Br)c2)N1CCc1ccccn1` (stereo unspecified), for which the 50% inhibitory concentration (IC50) was 1.68 µM in test [1] and 9.51 µM in test [2]. For the same compound, the Ratio IC50 in the test listed under Homo sapiens stood at 5.6.

With `CC(C)CN1C(=O)COC1c1cnccc1-c1ccc(Br)cc1` (stereo unspecified), the IC50 in test [1] worked out at 4.42 µM; in test [2] it was 29.3 µM. The Ratio IC50 in the test listed under Homo sapiens was found to be 6.6.

For the compound `O=C1CSC(c2ccncc2-c2ccc(C(F)(F)F)cc2)N1C1CCCC1` (stereo unspecified), the IC50 was 1.37 µM in test [1] and 4.25 µM in test [2]. Further, in the test filed under Homo sapiens, the Ratio IC50 turned out to be 3.1.

Regarding `CC(C)CN1C(=O)CS[C@@H]1c1cnccc1-c1ccc(C(F)(F)F)cc1` (stereo in doubt; 58) [listing 2 of 2 here], the half-maximal inhibitory concentration (IC50) in test [1] was 3.32 µM; in test [2], 12.9 µM.

On to `CC(C)CN1C(=O)CSC1c1ccncc1-c1ccc(F)cc1` (stereo unspecified), for which the concentration for half-maximal inhibition (IC50) in test [1] came to 4.15 µM; in test [2], 11.7 µM. For the same compound, the Ratio IC50 in the test listed under Homo sapiens is 2.8.

Take `CC(C)CN1C(=O)CS[C@@H]1c1cnccc1-c1ccc(C(F)(F)F)cc1` (stereo in doubt; 59) [listing 1 of 2 here]: the Ratio IC50 in the test filed under Homo sapiens was 29.1.

In the case of `CN(C)c1ccc(-c2cnccc2C2SCC(=O)N2C2CCCC2)cc1` (stereo unspecified), the IC50 was 10.7 µM in test [1] and 18.2 µM in test [2]. In addition, the Ratio IC50 in the test filed under Homo sapiens was determined as 1.7.

As to `CC(C)CN1C(=O)CS[C@@H]1c1cnccc1-c1ccc(C(F)(F)F)cc1` (stereo in doubt; 59) [listing 2 of 2 here], the IC50 in test [1] was 0.77 µM; in test [2] it was 22.9 µM.

As to `Fc1ccc(C(c2ccc(F)cc2)N2CCN(C/C=C/c3ccccc3)CC2)cc1` [FLUNARIZINE], the IC50 stood at 1.67 µM in test [1] and 0.78 µM in test [2]. Also, in the test listed under Homo sapiens, the Ratio IC50 is 0.5.

Take `CC(C)CN1C(=O)CSC1c1ccncc1-c1ccc(Br)cc1` (stereo unspecified): the figures for the IC50 in test [1] and in test [2] were 0.5 µM and 3.08 µM, respectively. Besides, the Ratio IC50 in the test filed under Homo sapiens turned out to be 6.1.

Take `O=C1CSC(c2cnccc2-c2ccc(Br)cc2)N1C1CCCCC1` (stereo unspecified): the IC50 in test [1] was found to be 1.32 µM; in test [2], 2.01 µM. Also, in the test filed under Homo sapiens, the Ratio IC50 worked out at 1.5.

Usually IC50 stands for the point on the concentration scale where inhibition reaches its midpoint.
